Test results published in PMC3481155, “AhR activation underlies the CYP1A autoinduction by A-998679 in rats” (Frontiers in Genetics, 2012).

Key:
[1] = system: Cyp1a1; assay: Cyp1a1 mRNA induction in primary rat hepatocytes; format: cell-based; conditions: 10 μM, 24 h, data not shown
Method: (§1) Rat hepatocytes were isolated in a perfusion procedure as described previously (Elliget and Kolaja, [1983]; Waring et al., [2001]). The beagle dog hepatocytes were isolated in the same manner, except for adjustment of flow rate and buffer volume to scale to liver size. Cells were plated at a seeding density of 1.0 × 10^6 cells per well on 6-well, collagen-type I coated plates (BD Biosciences, Bedford, MA) in hepatocyte plating medium (Celsis, Baltimore, MD). Cells were allowed to attach for 24 h in a 37°C humidified incubator with a 5% CO2 atmosphere and were dosed for 24 h (rat) or 48 h (dog) with vehicle control [0.1% DMSO (v/v)] or 10 μM A-998679 in fresh treatment media (Celsis hepatocyte incubation media) every 24 h. After the last incubation, cells were lysed in 1 ml of Qiazol (Qiagen) and stored at −80°C until RNA isolation. Cryopreserved human hepatocytes (donor designation Hu4198; Invitrogen Life Technologies, Carlsbad, CA) were thawed and plated according to the manufacturer's protocol and allowed to incubate for 24 h. […]
(§2) RNA samples were diluted with RNase-free molecular biology grade water to a concentration of 20 ng/μl total RNA. […] Results were analyzed by calculating the fold change of CYP1A1 and/or CYP1A2 mRNA levels normalized to 28S rRNA (ΔΔ Ct) in compound treated cells or tissues compared to vehicle levels. […]

[2] = system: CYP1A2; assay: CYP1A2 mRNA induction in primary dog hepatocytes; format: cell-based; conditions: 10 μM, 48 h, data not shown
Method: as §1, §2

[3] = system: Cyp1a1; assay: Cyp1a1 mRNA in rat small intestine (jejunum); format: in vivo
Method: All animal experiments were conducted in accordance with the Guiding Principles in the Use of Animals in Toxicology (http://www.toxicology.org/ai/air/air6.asp) and were approved by Abbott's Institutional Animal Care and Use Committee (IACUC). Male Sprague-Dawley rats [Crl:CD®(SD)IGS BR], weighing ~250 g at study initiation were obtained from Charles River Laboratories, Inc. (Wilmington, MA). Rats were housed singly in ventilated, stainless steel, wire-bottom hanging cages and fed non-certified Rodent Chow (Harlan Labs, Madison, WI), and water ad libitum and acclimated for at least 5 days after arrival. […] Serum clinical chemistry parameters were quantified using an Aeroset Clinical Chemistry Analyzer (Abbott Laboratories, Abbott Park, IL) and included alanine amino transferase (ALT), aspartate amino transferase (AST), gamma glutamyltransferase (GGT), and alkaline phosphatase (ALP) activities.
Frozen liver or jejunum were immediately added to 4 ml of TRIzol reagent (Invitrogen Life Technologies) and homogenized using a Polytron 300D homogenizer (Brinkman Instruments, Westbury, NY). […] Nucleic acid concentration was determined by OD 260 nm (Smart-Spec, Bio-Rad Laboratories, Hercules, CA), and RNA integrity was evaluated using an Agilent 2100 bioanalyzer (Agilent Technologies, Foster City, CA). […]

[4] = molecular target: T1, rat Cyp 2C12 (Rattus norvegicus, UniProt P11510); assay: Recombinant rat Cyp phenotype profiling, 2C12; format: in vitro ADME; conditions: 60 min
T1 construct: purchased BD Gentest; host or cells: baculovirus infected insect cells
T1 sequence (P11510 whole entry): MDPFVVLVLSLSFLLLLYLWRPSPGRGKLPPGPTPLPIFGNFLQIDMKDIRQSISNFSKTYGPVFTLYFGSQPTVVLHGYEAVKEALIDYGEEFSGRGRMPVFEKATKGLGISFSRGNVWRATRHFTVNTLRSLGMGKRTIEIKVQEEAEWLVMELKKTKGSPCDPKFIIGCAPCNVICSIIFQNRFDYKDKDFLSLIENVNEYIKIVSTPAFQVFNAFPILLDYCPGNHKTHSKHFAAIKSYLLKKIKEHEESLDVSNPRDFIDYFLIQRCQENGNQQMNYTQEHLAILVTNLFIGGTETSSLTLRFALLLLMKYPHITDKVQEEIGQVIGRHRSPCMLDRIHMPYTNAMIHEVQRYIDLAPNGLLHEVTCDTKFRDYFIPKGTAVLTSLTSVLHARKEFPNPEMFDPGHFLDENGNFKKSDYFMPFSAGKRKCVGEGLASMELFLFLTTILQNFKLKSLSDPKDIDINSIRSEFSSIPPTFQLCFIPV
Method: (§3) Identification of the drug metabolizing enzymes (DMEs) of A-998679 was studied in cDNA expressed recombinant enzymes prepared from baculovirus infected insect cells over-expressing rat Cyp isoforms (BD Gentest, Woburn, MA) as listed in Table 2. Incubations were conducted in duplicate using Supersomes. The incubation mixture contained 100 pmol/ml of enzymes, except for Cyp1a1 (200 pmol/ml), 0.1 or 0.21 μM of [^3H]A-998679 in 100 mM phosphate buffer (pH 7.4). Reactions were initiated with the addition of NADPH at a final concentration of 1 mM and incubated at 37°C for 60 min. At the end of the incubation period, the incubations were terminated by the addition of acetonitrile/ethanol (50/50, v/v) solution. Insect control samples lacking expressed enzyme were used as negative control. The degree of metabolism of A-998679 was assessed by percent of parent remaining using the radio-HPLC method described below.
(§4) Radiolabeled components from the above assays were profiled following separation by HPLC with on line radioflow detector. The system consisted of an Agilent 1100 Series quaternary pump and autosampler connected to a Packard 500TR flow scintillation detector. The data were processed using the Radiomatic™ Flo-one® software v3.65. The scintillant (Perkin Elmer FLO-SCINT™ III) flow was maintained at 3 ml/min. […]

[5] = molecular target: T2, rat Cyp 2D2 (Rattus norvegicus, UniProt P10634); assay: Recombinant rat Cyp phenotype profiling, 2D2; format: in vitro ADME; conditions: 60 min
T2 construct: purchased BD Gentest; host or cells: baculovirus infected insect cells
T2 sequence (P10634 whole entry): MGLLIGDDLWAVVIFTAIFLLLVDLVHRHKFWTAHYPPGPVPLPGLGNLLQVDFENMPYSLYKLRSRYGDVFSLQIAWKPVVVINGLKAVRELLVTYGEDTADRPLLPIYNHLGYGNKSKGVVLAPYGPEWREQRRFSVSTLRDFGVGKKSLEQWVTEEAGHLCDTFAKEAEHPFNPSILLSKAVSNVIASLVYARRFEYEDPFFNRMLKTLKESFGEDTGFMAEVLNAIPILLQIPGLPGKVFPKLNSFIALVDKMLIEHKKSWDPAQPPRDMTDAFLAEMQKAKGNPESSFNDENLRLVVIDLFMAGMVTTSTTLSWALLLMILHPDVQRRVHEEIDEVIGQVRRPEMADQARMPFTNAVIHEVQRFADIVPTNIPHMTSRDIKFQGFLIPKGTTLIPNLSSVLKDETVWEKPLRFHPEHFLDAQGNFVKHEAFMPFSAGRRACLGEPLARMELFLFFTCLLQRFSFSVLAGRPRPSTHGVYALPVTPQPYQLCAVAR
Method: as §3, §4

Cyp1a1 mRNA induction [1]: also observed
CYP1A2 mRNA induction [2]: also observed
Cyp1a1 mRNA expression in rat jejunum ([3]; 200 mg/kg): significantly decreased
Cyp1a1 mRNA expression in rat jejunum ([3]; 30 and 100 mg/kg, high interindividual variability): increased
% parent remaining ([4]; recombinant rat Cyp 2C12, 0.10 μM): 100%
% parent remaining ([4]; recombinant rat Cyp 2C12, 0.21 μM): 100%
% parent remaining ([5]; recombinant rat Cyp 2D2, 0.10 μM): 100%
% parent remaining ([5]; recombinant rat Cyp 2D2, 0.21 μM): 98.1%
Compound: N#Cc1cccc(-c2noc(-c3cccnc3)n2)c1 [A-998679, 3-(5-pyridin-3-yl-1,2,4-oxadiazol-3-yl) benzonitrile]
